Results on two molecules are retold here after US20130190289A1, “COMPOUNDS AND METHODS FOR THE TREATMENT OR PREVENTION OF FLAVIVIRUS INFECTIONS” (priority 2010, published 2013).

Data set [1] deals with Huh-7 ET, Molt-4, DU-145, Hep-G2 and SH-SY5Y cells. Kind of data set: [3H]Thymidine incorporation assay (cell toxicity). The settings on record: read-out: [3H]Thymidine CC50; [3H]thymidine incorporation, cell toxicity; mean value class; cell line not given. (In general: Uptake of a labelled nucleoside into DNA is a usual measure of proliferation.)
Data set [2] concerns HCV replicon (genotype 1b) in Huh7 cell line ET. Description: microbe, parasite or virus in culture. Format: cell-based, HCV genotype 1b. The note with it: read-out: HCV-Replicon-(Luci-ET) 1b_IC50. (In antiviral work, replicon cells carry a viral genome segment that copies itself.)
For data set [3], the system named is HCV sub-genomic replicon of genotype 1a in replicon cell line W11.8. Description: microbe, parasite or virus in culture. Format: cell-based, HCV genotype 1a. The note with it: read-out: HCV-Replicon-ELISA-1a IC50. From the text: This procedure below describes the HCV replicon assay using a Huh7 hepatoma cell line harboring a highly cell culture-adapted replicon (genotype 1b) (hereafter named cell line ET). The ET cells contained the highly cell culture-adapted replicon I389luc-ubi-neo/NS3-3′/5.1 construct that carried, in addition to the neomycin gene, an integrated copy to the firefly luciferase gene (Krieger, N; Lohmann, V; Bartenschlager, R. Enhancement of hepatitis C virus RNA replication by cell culture-adaptive mutations. J. Virol. 2001, 75, 4614-4624). A replicon cell line W11.8, containing the 1a genotype of HCV was also used. These two cell lines (genotype 1b and 1a) allowed measurement of RNA replication and translation by measuring luciferase activity (against genotype 1b) or by measuring the NS5A level using the ELISA assay (against genotype 1a). […] ET cell lines were maintained in cultures at a sub-confluent level (<85%). The culture media used for cell passaging consisted of DMEM (Gibco BRL Laboratories, Mississauga, ON, Canada) supplemented with 10% fetal bovine serum with 1% penicilin/streptomycin, 1% glutamine, 1% sodium pyruvate, 1% non-essential amino acids, and 180 µg/ml of G418 final concentration.
Replicon cell lines W11.8 containing a sub-genomic replicon of genotype 1a was used for the HCV Replicon Cell-Based detection using the ELISA. The RNA replication in presence of different drug concentrations was indirectly measured in these cell lines by the level of NS5A protein content upon drug treatment for four days. The NS5A is a non-structural protein of HCV and is used as marker of HCV replication in this assay.
For the treatment of the cells with the testing drug, Culture medium was removed from the 175 cm^2 T-flask by aspiration. Cell monolayer was rinsed with 10-20 mL of PBS 1× at room temperature. PBS was removed by aspiration. Cells were trypsinized using 3 mL of Trypsin (0.25%)/EDTA (0.1%) solution. Flasks were incubated at 37° C. (incubator) for 7 minutes. Complete medium (9 mL) without G418 is then added. Cell clumps were disrupted by pipetting up and down several times.
The cell suspension was then transferred to a 50 mL Falcon polypropylene tube. Cells were then counted several times using the haemocytometer. Cells were diluted at 50,000 cells/mL with complete DMEM without G418, then transferred into a sterile reservoir. Using a multichannel pipet, approximately 5,000 viable cells (100 μL) were plated per well in a white opaque 96-well microtiter plate. After an incubation period of 2-4 hours at 37° C. in a 5% CO2 incubator, compounds were added at various concentrations.
Drugs were resuspended in DMSO at a stock concentration of 100 mM or 10 mM. […] Then, drugs were diluted at twice the final concentration in the same medium (without G418) described earlier, in sterile 96-deep well plate and according to a particular template (see Appendix). One volume (100 μL) of each drug dilution was then added to each well that contains cells.
Sixteen wells were used as control (0% inhibition) without drug. Eight wells were used as background control (100% inhibition) containing 2 μM (final concentration) of the reference compound. […] Values from 100% inhibited wells were averaged and used as the background value. Cells are further incubated for 4 days at 37° C. in a 5% CO2 incubator.
For the measurement of NS5A protein content, following the incubation time of four days, the media was throwed into an appropriate waste container by inverting the plate. Any residual liquid was removed by tapping gently on absorbent paper several times. The plates were then washed once with 150 μL of PBS per well, and then incubated for 5 minutes at room temperature on a shaker (500 rpm).

For `COC(C)C(C(=O)N(C)C)N(C(=O)C1CCC(C)CC1)c1cc(C#CC(C)(C)C)sc1C(=O)O` (centres unmarked) [Compound 75], the CC50 (as a rule, the concentration at which the toxic effect on the cells reaches its halfway point) in data set [1] is 10 to 100 µM. Further, the IC50 in data set [2] was < 0.1 µM.

For `CC[C@@H](C(=O)N1CCN(C)CC1)N(c1cc(C#CC(C)(C)C)sc1C(=O)O)C(=O)[C@H]1CC[C@H](C)CC1` [Compound 82], in data set [1], the CC50 was > 100 µM. The IC50 in data set [3] and in data set [2] was < 0.1 µM throughout.
